Data: US8569314B2, “Triazolo and tetrazolo pyrimidine derivatives as HNE inhibitors for treating COPD” (Bayer Intellectual Property GmbH, priority 2009, dated 2013)
Structures can show the parent of a compound that is named as a salt.

Target: human neutrophil elastase (HNE) (Homo sapiens (Human), UniProt P08246)
Assay: In vitro HNE inhibition assay (fluorogenic peptide substrate MeOSuc-Ala-Ala-Pro-Val-AMC)
Type: biochemical
Details: HNE concentration of 80 pM; 37° C., 2 hours
Source text: B-1. In Vitro HNE Inhibition Assay
The potency of the compounds of the invention is ascertained in an in vitro inhibition assay. The HNE-mediated amidolytic cleavage of a suitable peptide substrate leads in this connection to an increase in the fluorescent light. The signal intensity of the fluorescent light is directly proportional to the enzyme activity. The effective concentration of a test compound at which half the enzyme is inhibited (50% signal intensity of the fluorescent light) is indicated as IC50.
Enzyme (80 pM HNE; from Serva, Heidelberg) and substrate (20 μM MeOSuc-Ala-Ala-Pro-Val-AMC; from Bachem, Weil am Rhein) are incubated in an assay volume of in total 50 μl of assay buffer (0.1 M HEPES pH 7.4, 0.5 M NaCl, 0.1% w/v BSA, 1% v/v DMSO) in a 384-well microtiter plate in the presence and absence of the test substance at 37° C. for 2 hours. The intensity of the fluorescent light from the assay mixtures is measured (Ex. 380 nm, Em. 460 nm). The IC50 values are determined by plotting the intensity of the fluorescent light against the active substance concentration.

Chain of human neutrophil elastase (HNE) (P08246 30-267): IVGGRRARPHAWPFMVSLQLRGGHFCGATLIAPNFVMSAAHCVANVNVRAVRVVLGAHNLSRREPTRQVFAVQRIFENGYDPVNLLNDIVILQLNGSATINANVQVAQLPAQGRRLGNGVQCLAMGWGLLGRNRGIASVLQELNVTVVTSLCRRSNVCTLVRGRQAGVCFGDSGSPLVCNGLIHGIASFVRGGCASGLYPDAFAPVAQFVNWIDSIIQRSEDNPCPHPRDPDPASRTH

IC50 [nM] | SMILES
6.5 | CCOC(=O)C1=C(C)N(c2cccc(C(F)(F)F)c2)c2nccn2[C@@H]1c1ccc(C#N)cc1 [Example 90, Ethyl (5R)-5-(4-cyanophenyl)-7-methyl-8-[3-(trifluoromethyl)phenyl]-5,8-dihydroimidazo[1,2-a]-pyrimidine-6-carboxylate]
< 0.3 | CC1=C(C#N)[C@@H](c2ccc(C#N)cc2S(C)(=O)=O)n2nc(N)nc2N1c1cccc(C(F)(F)F)c1 [Example 9, (7S)-2-Amino-7-[4-cyano-2-(methylsulfonyl)phenyl]-5-methyl-4-[3-(trifluoromethyl)phenyl]-4,7-dihydro[1,2,4]triazolo[1,5-a]pyrimidine-6-carbonitrile hydrochloride]
< 0.3 | CC1=C(C#N)[C@@H](c2ccc(C#N)cc2S(C)(=O)=O)n2nc(NC(=O)C3CC3)nc2N1c1cccc(C(F)(F)F)c1 [Example 35, N-{(7S)-6-Cyano-7-[4-cyano-2-(methylsulfonyl)phenyl]-5-methyl-4-[3-(trifluoromethyl)phenyl]-4,7-dihydro[1,2,4]triazolo[1,5-a]pyrimidin-2-yl}cyclopropanecarboxamide]
85 | CC1=C(C#N)C(c2ccc(C#N)cc2)n2nc(C(C)C)nc2N1c1cccc(C(F)(F)F)c1 (racemic) [Example 67, (rac)-7-(4-Cyanophenyl)-5-methyl-2-(1-methylethyl)-4-[3-(trifluoromethyl)phenyl]-4,7-dihydro-[1,2,4]triazolo[1,5-a]pyrimidine-6-carbonitrile]
< 0.3 | CC1=C(C#N)[C@@H](c2ccc(C#N)cc2)n2nc(NC(=O)C3CCCCC3)nc2N1c1cccc(C(F)(F)F)c1 [Example 23, N-{(7R)-6-Cyano-7-(4-cyanophenyl)-5-methyl-4-[3-(trifluoromethyl)phenyl]-4,7-dihydro[1,2,4]triazolo[1,5-a]pyrimidin-2-yl}cyclohexanecarboxamide]
< 0.3 | CCNc1nc2n(n1)[C@H](c1ccc(C#N)cc1)C(C#N)=C(C)N2c1cccc(C(F)(F)F)c1 [Example 56, (7R)-7-(4-Cyanophenyl)-2-(ethylamino)-5-methyl-4-[3-(trifluoromethyl)phenyl]-4,7-dihydro-[1,2,4]triazolo[1,5-a]pyrimidine-6-carbonitrile]

Second part, the compound before the results:

SMILES | IC50 [nM]
CC1=C(C#N)[C@@H](c2ccc(C#N)cc2)n2nc(NC(=O)NCCO)nc2N1c1cccc(C(F)(F)F)c1 [Example 53, 1-{(7R)-6-Cyano-7-(4-cyanophenyl)-5-methyl-4-[3-(trifluoromethyl)phenyl]-4,7-dihydro[1,2,4]triazolo[1,5-a]pyrimidin-2-yl}-3-(2-hydroxyethyl)urea] | < 0.3
CCOC(=O)C1=C(C)N(c2cccc(C(F)(F)F)c2)c2nc3cncnc3n2C1c1ccc(C#N)cc1 (racemic) [Example 78, Ethyl(rac)-9-(4-cyanophenyl)-7-methyl-6-[3-(trifluoromethyl)phenyl]-6,9-dihydropyrimido[1,2-e]-purin-8-carboxylate] | 3
CCOC(=O)Nc1nc2n(n1)C(c1ccc(C#N)cc1)C(C(=O)OCC)=C(C)N2c1cccc(C(F)(F)F)c1 (centres unmarked) [Example 50, Ethyl 7-(4-cyanophenyl)-2-[(ethoxycarbonyl)amino]-5-methyl-4-[3-(trifluoromethyl)phenyl]-4,7-dihydro[1,2,4]triazolo[1,5-a]pyrimidine-6-carboxylate] | < 0.3
CC1=C(C#N)C(c2ccc(C#N)cc2S(C)(=O)=O)n2nc(N3C(=O)c4ccccc4C3=O)nc2N1c1cccc(C(F)(F)F)c1 (racemic) [Example 5, (rac)-7-[4-Cyano-2-(methylsulfonyl)phenyl]-2-(1,3-dioxo-1,3-dihydro-2H-isoindol-2-yl)-5-methyl-4-[3-(trifluoromethyl)phenyl]-4,7-dihydro[1,2,4]triazolo[1,5-a]pyrimidine-6-carbonitrile] | < 0.3

Target: pancreas elastase (Sus scrofa (Pig), UniProt P00772)
Assay: not given
Details: cited from earlier work

Chain of pancreas elastase (P00772 27-266): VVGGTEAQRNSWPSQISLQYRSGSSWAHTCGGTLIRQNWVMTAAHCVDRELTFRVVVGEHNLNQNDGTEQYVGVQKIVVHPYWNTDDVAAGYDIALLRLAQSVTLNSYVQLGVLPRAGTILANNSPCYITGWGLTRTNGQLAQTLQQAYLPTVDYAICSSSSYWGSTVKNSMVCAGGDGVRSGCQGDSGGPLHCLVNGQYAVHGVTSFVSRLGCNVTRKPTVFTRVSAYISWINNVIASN

SMILES | IC50 [µM]
CC(C)(C)C(=O)Oc1ccc(S(=O)(=O)Nc2ccccc2C(=O)NCC(=O)O)cc1 [sivelestat] | 5.6
